Test results taken from US20090098110A1, “INJECTABLE FORMS OF SOLID-FORMING CROSSLINKED BIOELASTIC BIOPOLYMERS FOR LOCAL DRUG DELIVERY” (Duke University, priority 2007, published 2009).
Where a name gives a salt, the structure may show the parent alone.

Columns and labels:
[1] = Antibiotic release from the crosslinked bioelastomer constructs into PBS at 37° C, UV/Vis of supernatant; type: physicochemical; conditions: ELP 150 mg/ml
[2] = reported value, organism not stated; cited from earlier work
[3] = test system: Bacillus subtilis (ATCC 6633); experiment: Agar disk bioassay (zone of inhibition) of antibiotics released from the crosslinked bioelastomer constructs; type: cell-based; conditions: for active compound concentration corresponding to zone of inhibition: day 1 supernatant; for active compound concentration corresponding to zone of inhibition / active drug concentration corresponding to zone of inhibition: vs serial dilutions
Procedure: To determine if the eluted antibiotics remained active, bioassays were performed in triplicate, for a subset of samples, using Bacillus subtilis (ATCC 6633) for both vancomycin and cefazolin. Vancomycin supernatants from days 1, 7, 14, 21, and 28, as well as a sample of the final construct (following resolubilization) were tested against vancomycin serial dilutions of 5 mg/ml, 1 mg/ml, 0.5 mg/ml, 0.1 mg/ml, and 0.05 mg/ml. […] Bacterial suspensions were prepared in tryptic soy broth following the recommendations set forth by the manufacturer for Bacillus subtilis (Lyfo Disk, MicroBiologics, St. Cloud, Minn.). After 30 minutes of incubation at 37° C. the suspensions were swabbed onto petri dishes containing Mueller-Hinton agar. Twenty microliters of each supernatant were pipetted onto 6 mm filter paper disks applied to the surface of the agar. The plates were incubated for 18 hours at 37° C. After incubation, zones of inhibition were measured twice in two randomly chosen directions. Supernatants from ELP control samples were tested in this same manner.

Cc1nnc(SCC2=C(C(=O)[O-])N3C(=O)[C@@H](NC(=O)Cn4cnnn4)[C@H]3SC2)s1.[Na+] [cefazolin, cefazolin sodium salt]
time in which the majority of cefazolin release took place ([1]; cefazolin-loaded ELP constructs): initial two or three days
minimal inhibitory concentration [2]: 0.25 to 1 µg/mL
active compound concentration corresponding to zone of inhibition ([3]; cefazolin released from crosslinked construct): ~2 mg/mL
active drug concentration corresponding to zone of inhibition ([3]; cefazolin released from crosslinked construct, day 3 supernatant): less than 0.5 mg/ml
zone of bacterial growth inhibition, biological activity of released cefazolin ([3]; supernatants of days 1-4 and final homogenized construct, all samples tested): biologically active

CN[C@H](CC(C)C)C(=O)N[C@H]1C(=O)N[C@@H](CC(N)=O)C(=O)N[C@H]2C(=O)N[C@H]3C(=O)N[C@H](C(=O)N[C@H](C(=O)O)c4cc(O)cc(O)c4-c4cc3ccc4O)[C@H](O)c3ccc(c(Cl)c3)Oc3cc2cc(c3O[C@@H]2O[C@H](CO)[C@@H](O)[C@H](O)[C@H]2O[C@H]2C[C@](C)(N)[C@H](O)[C@H](C)O2)Oc2ccc(cc2Cl)[C@H]1O [vancomycin, vancomycin hydrochloride]
time period over which the ELP constructs release antibiotic ([1]; cefazolin-loaded ELP constructs, PBS 37° C, supernatant replaced days 1-10): ≥ 10 days
time period over which the crosslinked ELP constructs release vancomycin ([1]; vancomycin-loaded crosslinked ELP constructs, PBS 37° C, supernatant replaced): ≥ 28 days
minimal inhibitory concentration [2]: 1.5 to 3 µg/mL
zone of bacterial growth inhibition, biological activity of released vancomycin ([3]; all supernatants tested (days 1, 7, 14, 21, 28) and homogenized final sample): retained biological activity
active compound concentration corresponding to zone of inhibition ([3]; vancomycin released from crosslinked construct): ~1 mg/mL
active drug concentration corresponding to zone of inhibition ([3]; vancomycin released from crosslinked construct, day 7 supernatant): less than 0.1 mg/ml
